Data as given in paper PMC7464159, “Triple Negative Breast Cancer and Breast Epithelial Cells Differentially Reprogram Glucose and Lipid Metabolism upon Treatment with Triterpenic Acids” (Biomolecules, 2020).

Test system: MCF-10A cells
Experiment: 1H NMR metabolomics of polar (aqueous) cell extracts
Type: cell-based, human
Details: BA 5µM
Description: MDA-MB-231 and MCF-10A cells were seeded in 10-cm-diameter Petri dishes at a density of 6 × 10^5 cells/mL (10 mL per dish) and cultured for 24 h at 37 °C. […] Vehicle solvent control cells received DMSO (0.10% v/v). Samples were collected immediately after 48 h incubation or, to assess cellular recovery, medium was replaced with fresh growth medium (without TAs), and cells were incubated for additional 24 h before collection (48 + 24 h samples). Four independent assays were performed.
After incubation, culture medium was collected and centrifuged (1000× g, 5 min) and the supernatant stored at −80 °C until analysis. Culture medium without cells was placed under the same conditions and collected. Cell extraction was performed as described by Carrola et al.. Briefly, cells were washed four times with PBS and extracted with a mixture of methanol:chloroform:water (1:1:0.7). The resulting polar and organic phases were collected and then dried under vacuum or under a stream of nitrogen gas, respectively. All samples were stored at −80 °C and, at the time of analysis, dried polar extracts were reconstituted in 600 µL of deuterated phosphate buffer (100 mM, pH 7.4) containing 0.1 mM TSP-d4, while organic extracts were reconstituted in deuterated chloroform containing 0.03% TMS. Regarding medium samples, 540 μL were mixed with 60 μL of D2O containing 0.25% TSP-d4. Prior to analysis, 550 μL of each sample were transferred to 5 mm NMR tubes.
^1H NMR spectra of all samples were acquired on a Bruker Avance III HD 500 NMR spectrometer (University of Aveiro, Portuguese NMR Network) operating at 500.13 MHz for ^1H observation equipped with a 5 mm TXI probe. Standard 1D spectra (Bruker pulse programs ‘noesypr1d’, with water suppression, for medium samples and aqueous extracts, and ‘zg’ for organic extracts) were recorded with a 7002.8 Hz spectral width, 32 k data points, a 2 s relaxation delay and 512 scans. Spectral processing comprised exponential multiplication with 0.3 Hz line broadening, zero filling to 64 k data points, manual phasing, baseline correction, and chemical shift calibration to the TSP or TMS signal at 0 ppm. 2D ^1H-^1H total correlation (TOCSY) spectra, ^1H-^13C heteronuclear single quantum correlation (HSQC) spectra and J-resolved spectra were also registered for selected samples to assist spectral assignment. Metabolites were identified with the support of 2D spectra and the spectral reference databases BBIOREFCODE-2-0-0 (Bruker Biospin, Rheinstetten, Germany) and HMDB [28]. Selected signals were then integrated using the AmixViewer software […] (version 3.9.14, Bruker BioSpin, Rheinstetten, Germany) and normalized by the total spectral area. The magnitude of each metabolite change was assessed through the percentage of variation (and its respective error) in exposed samples relatively to controls, and through the effect size (ES) adjusted for small sample numbers (and respective standard error). Metabolite variations with absolute ES greater than 0.8 were expressed in a heatmap, colored as a function of the percentage of variation, employing the R statistical software.

Question: With `C=C(C)[C@@H]1CC[C@]2(C(=O)O)CC[C@]3(C)[C@H](CC[C@@H]4[C@@]5(C)CC[C@H](O)C(C)(C)[C@@H]5CC[C@]43C)[C@@H]12` [BA, betulinic acid] as the compound, how does the 1-MethyInicotinamide %var (48h) read?
Answer: 152.75%

Question: What about the 3-Hydroxyisobutyrate %var (48h) of the same compound?
Answer: -48.45%

Question: And the ATP %var (48h)?
Answer: 0%

Question: And the Acetate %var (48h)?
Answer: 33.50%

Question: What about the Ala %var (48h) of the same compound?
Answer: -39.74%

Question: And the Asp %var (48h)?
Answer: -48.70%

Question: And the Choline %var (48h)?
Answer: 46.22%

Question: What about the Citrate %var (48h) of the same compound?
Answer: -74.68%

Question: And the Cr %var (48h)?
Answer: 59.47%

Question: And the Dimethylamine %var (48h)?
Answer: -40.51%

Question: And the Formate %var (48h)?
Answer: 91.07%

Question: What about the Fumarate %var (48h) of the same compound?
Answer: -80.00%

Question: What about the GPC %var (48h) of the same compound?
Answer: 307.70%

Question: And the GSH %var (48h)?
Answer: -31.85%

Question: And the Gln %var (48h)?
Answer: 0%

Question: What about the Glu %var (48h) of the same compound?
Answer: -75.91%

Question: And the Glucose %var (48h)?
Answer: -56.45%

Question: What about the Glucose-1-phosphate %var (48h) of the same compound?
Answer: -93.58%

Question: And the Gly %var (48h)?
Answer: 41.70%

Question: And the His %var (48h)?
Answer: -25.16%

Question: And the Ile %var (48h)?
Answer: 218.16%

Question: What about the Lactate %var (48h) of the same compound?
Answer: 161.49%

Question: And the Leu %var (48h)?
Answer: 418.85%

Question: And the NADH %var (48h)?
Answer: 62.88%

Question: What about the PC %var (48h) of the same compound?
Answer: -78.42%

Question: What about the PCr %var (48h) of the same compound?
Answer: 0%

Question: What about the Phe %var (48h) of the same compound?
Answer: 0%

Question: What about the Pro %var (48h) of the same compound?
Answer: 80.04%

Question: And the Tyr %var (48h)?
Answer: -16.91%

Question: What about the UDP-GalNAc %var (48h) of the same compound?
Answer: 123.58%

Question: What about the UDP-GlcNAc %var (48h) of the same compound?
Answer: 151.53%

Question: And the UDP-Glucose %var (48h)?
Answer: -75.09%

Question: What about the Val %var (48h) of the same compound?
Answer: 138.35%

Question: What about the “myo -Lno %var” value (48h) of the same compound?
Answer: -19.23%

Question: And the “number of polar metabolites with altered intracellular levels” value (48h)?
Answer: 31

Question: And the 1-MethyInicotinamide %var (48h+24h)?
Answer: 56.61%

Question: And the 3-Hydroxyisobutyrate %var (48h+24h)?
Answer: -48.51%

Question: And the ATP %var (48h+24h)?
Answer: 0%

Question: What about the Acetate %var (48h+24h) of the same compound?
Answer: 63.78%

Question: What about the Ala %var (48h+24h) of the same compound?
Answer: -65.18%

Question: What about the Asp %var (48h+24h) of the same compound?
Answer: -24.38%

Question: What about the Choline %var (48h+24h) of the same compound?
Answer: 0%

Question: What about the Citrate %var (48h+24h) of the same compound?
Answer: -61.27%

Question: And the Cr %var (48h+24h)?
Answer: 0%

Question: What about the Dimethylamine %var (48h+24h) of the same compound?
Answer: 0%

Question: And the Formate %var (48h+24h)?
Answer: 287.80%

Question: What about the Fumarate %var (48h+24h) of the same compound?
Answer: 0%

Question: What about the GPC %var (48h+24h) of the same compound?
Answer: 188.81%

Question: What about the GSH %var (48h+24h) of the same compound?
Answer: -24.73%

Question: And the Gln %var (48h+24h)?
Answer: 0%

Question: What about the Glu %var (48h+24h) of the same compound?
Answer: -47.27%

Question: And the Glucose %var (48h+24h)?
Answer: 0%

Question: What about the Glucose-1-phosphate %var (48h+24h) of the same compound?
Answer: -92.25%

Question: And the Gly %var (48h+24h)?
Answer: 0%

Question: And the His %var (48h+24h)?
Answer: -44.80%

Question: And the Ile %var (48h+24h)?
Answer: 36.26%

Question: What about the Lactate %var (48h+24h) of the same compound?
Answer: 0%

Question: What about the Leu %var (48h+24h) of the same compound?
Answer: 75.04%

Question: What about the NADH %var (48h+24h) of the same compound?
Answer: 0%

Question: And the PC %var (48h+24h)?
Answer: 0%

Question: What about the PCr %var (48h+24h) of the same compound?
Answer: 0%

Question: And the Phe %var (48h+24h)?
Answer: -24.03%

Question: And the Pro %var (48h+24h)?
Answer: 0%

Question: What about the Tyr %var (48h+24h) of the same compound?
Answer: -36.13%

Question: What about the UDP-GalNAc %var (48h+24h) of the same compound?
Answer: 0%

Question: And the UDP-GlcNAc %var (48h+24h)?
Answer: 0%

Question: What about the UDP-Glucose %var (48h+24h) of the same compound?
Answer: -66.89%

Question: And the Val %var (48h+24h)?
Answer: 10.36%

Question: And the “myo -Lno %var” value (48h+24h)?
Answer: -52.77%
